23 molecules from patent publication US5114918A, “Endothelin antagonistic cyclic pentapeptides” (Banyu Pharmaceutical Co., Ltd., priority 1989, dated 1992) can be followed below.

Square brackets hold non-standard residues; d marks the D form. Peptide text beside a SMILES is read from it. * marks the point of attachment. Cya = N[C@@H](CS(=O)(=O)O)C(=O)O; dCya = N[C@H](CS(=O)(=O)O)C(=O)O; dPhg = N[C@@H](C(=O)O)c1ccccc1; dNle = CCCC[C@@H](N)C(=O)O; Pip = O=C(O)[C@@H]1CCCCN1; dNva = CCC[C@@H](N)C(=O)O; Nle = CCCC[C@H](N)C(=O)O; Nva = CCC[C@H](N)C(=O)O; For = O=C*

The first test has as its target T1, endothelin receptor (membrane of smooth muscle tissue of porcine aorta) (Sus scrofa, UniProt Q29010).
T1 construct: from tissue; host or cells: smooth muscle tissue of porcine aorta (membrane fraction)
T1 sequence (Q29010 21-427): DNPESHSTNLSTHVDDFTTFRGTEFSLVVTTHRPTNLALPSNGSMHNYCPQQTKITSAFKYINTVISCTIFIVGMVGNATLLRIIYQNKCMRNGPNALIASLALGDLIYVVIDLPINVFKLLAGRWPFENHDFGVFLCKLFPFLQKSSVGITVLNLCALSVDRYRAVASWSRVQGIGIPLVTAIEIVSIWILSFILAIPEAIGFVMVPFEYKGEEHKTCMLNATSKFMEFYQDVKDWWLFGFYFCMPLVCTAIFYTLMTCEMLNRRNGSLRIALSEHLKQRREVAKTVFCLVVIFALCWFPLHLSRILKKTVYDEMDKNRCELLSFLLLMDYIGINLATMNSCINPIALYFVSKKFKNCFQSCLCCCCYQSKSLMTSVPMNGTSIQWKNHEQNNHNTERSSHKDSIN
Briefly: Endothelin binding inhibition test (125I-endothelin-1, porcine aorta smooth muscle membrane). The settings on record: 1.1 μM of the test compound; porcine aorta smooth muscle membrane; 25° C, 4 hours; read-out: 125I-endothelin-1 binding inhibition, Inhibition (%). As to the method:
Endothelin binding inhibition test
The smooth muscle tissue of porcine aorta was homogenized in a buffer solution of 10 mM MOPS, pH 7.4, at 4° C. by a polytron. To the homogenate, sucrose was added to a concentration of 20%, and the mixture was centrifuged at 1,000×g for 15 minutes, and the supernatant was further centrifuged at 10,000×g for 15 minutes. The supernatant thereof was further centrifuged at 90,000×g for 40 minutes. The membrane precipitate thereby obtained was suspended in a buffer solution of 5 mM HEPES/Tris, pH 7.4, at a concentration of 25 mg/ml.
Then, 16 μl of this membrane suspension was added to 340 μl of 50 mM Tris/HCl buffer, pH 7.4, containing 10 μM calcium chloride, 10 μM magnesium chloride, 0.1 mM PMSF, 1 μM pepstatin A, 2 μM leupeptin, 1 mM 1,10-phenanthroline and 0.1% bovine serum albumin. To this suspension, 4 μl of (A) endothelin-1 (for nonspecific binding: 0.2 μM as the final concentration), (B) buffer solution A (for total control binding), or (C) a test compound (1.1 μM as the final concentration), was added. Further, to each suspension, 40 μl of ^125 I-endothelin-1 (12000-18000 cpm) was added. These mixtures were incubated at 25° C for 4 hours, then subjected to filtration on a glass filter GF/C and then washed with 5 mM HEPES/Tris, pH 7.4, containing 0.3% bovine serum albumin. Then, the radioactivity trapped by the glass filter was measured, and the ^125 I-endothelin-1 binding inhibition D (%) at 1.1 μM of the test compound was determined by the following equation. [formula] Each test was performed in triplicate.
`CC(C)C[C@@H]1NC(=O)[C@@H]([C@H](C)O)NC(=O)[C@H](C)NC(=O)[C@@H](CC(=O)O)NC(=O)[C@@H](Cc2c[nH]c3ccccc23)NC1=O` [Example 29, cyclo(-DTrp-DAsp-Ala-DThr-Leu-)] (cyclo(A[dT]L[dW][dD])): the inhibition (as a rule, the change of the read-out against control, counted positive when it falls) at 1.1 µM was 15%. The same measure, in the same setting: with `CC[C@@H](C)[C@H]1NC(=O)[C@@H]2CCCN2C(=O)[C@@H](CC(=O)O)NC(=O)[C@@H](Cc2c[nH]c3ccccc23)NC(=O)[C@H](CC(C)C)NC1=O` [Example 31, cyclo(-DTrp-DAsp-Pro-DIle-Leu-)] (cyclo(L[dW][dD]P[dI])) the figure was 80%. On the same count and under the same terms, with `CCCC[C@H]1NC(=O)[C@@H]2CCCN2C(=O)[C@@H](CC(=O)O)NC(=O)[C@@H](Cc2c[nH]c3ccccc23)NC(=O)[C@H](CC(C)C)NC1=O` [Example 33, cyclo(-DTrp-DAsp-Pro-DNle-Leu-)] (cyclo(L[dW][dD]P[dNle])) the figure was 77%; with `CC(C)C[C@@H]1NC(=O)[C@@H](c2ccccc2)NC(=O)[C@@H]2CCCN2C(=O)[C@@H](CC(=O)O)NC(=O)[C@@H](Cc2c[nH]c3ccccc23)NC1=O` [Example 34, cyclo(-DTrp-DAsp-Pro-DPhg-Leu-)] (cyclo(L[dW][dD]P[dPhg])), 83%; with `CCC[C@H]1NC(=O)[C@@H]2CCCN2C(=O)[C@@H](CC(=O)O)NC(=O)[C@@H](Cc2c[nH]c3ccccc23)NC(=O)[C@H](CC(C)C)NC1=O` [Example 35, cyclo(-DTrp-DAsp-Pro-DNva-Leu-)] (cyclo(L[dW][dD]P[dNva])), 79%. Same read-out and setting: with `CCCC[C@@H]1NC(=O)[C@@H](C(C)C)NC(=O)[C@H](CO)NC(=O)[C@@H](CC(=O)O)NC(=O)[C@@H](Cc2c[nH]c3ccccc23)NC1=O` [Example 36, cyclo(-DTrp-DAsp-Ser-DVal-Nle-)] (cyclo([Nle][dW][dD]S[dV])) the figure was 67%; with `CSCC[C@@H]1NC(=O)[C@@H](C(C)C)NC(=O)[C@H](CO)NC(=O)[C@@H](CC(=O)O)NC(=O)[C@@H](Cc2c[nH]c3ccccc23)NC1=O` [Example 37, cyclo(-DTrp-DAsp-Ser-DVal-Met-)] (cyclo(M[dW][dD]S[dV])), 38%; with `CC(C)[C@H]1NC(=O)[C@H](CC(=O)O)NC(=O)[C@@H](CC(=O)O)NC(=O)[C@@H](Cc2c[nH]c3ccccc23)NC(=O)[C@H](C)NC1=O` [Example 38, cyclo(-DTrp-DAsp-Asp-DVal-Ala-)] (cyclo(A[dW][dD]D[dV])), 21%. In the case of `CC(C)[C@H]1NC(=O)[C@H](C)NC(=O)[C@@H](CC(=O)O)NC(=O)[C@@H](Cc2c[nH]c3ccccc23)NC(=O)[C@@H]2CCCN2C1=O` [Example 39, cyclo(-DTrp-DAsp-Ala-DVal-Pro-)] (cyclo(A[dV]P[dW][dD])), the inhibition at 1.1 µM was 18%. Still for that read-out and setting: with `CC[C@H](C)[C@@H]1NC(=O)[C@@H](C(C)C)NC(=O)[C@@H]2CCCN2C(=O)[C@@H](CC(=O)O)NC(=O)[C@@H](Cc2c[nH]c3ccccc23)NC1=O` [Example 40, cyclo(-DTrp-DAsp-Pro-DVal-Ile-)] (cyclo(I[dW][dD]P[dV])) the figure was 66%; with `CCCC[C@@H]1NC(=O)[C@@H](C(C)C)NC(=O)[C@@H]2CCCN2C(=O)[C@@H](CC(=O)O)NC(=O)[C@@H](Cc2c[nH]c3ccccc23)NC1=O` [Example 41, cyclo(-DTrp-DAsp-Pro-DVal-Nle-)] (cyclo([Nle][dW][dD]P[dV])), 83%; with `CC(C)C[C@@H]1NC(=O)[C@@H](C(C)C)NC(=O)[C@H](C(C)C)NC(=O)[C@@H](CC(=O)O)NC(=O)[C@@H](Cc2c[nH]c3ccccc23)NC1=O` [Example 44, cyclo(-DTrp-DAsp-Val-DVal-Leu-)] (cyclo(L[dW][dD]V[dV])), 56%. `CCC[C@@H]1NC(=O)[C@@H](C(C)C)NC(=O)[C@@H]2CCCN2C(=O)[C@@H](CC(=O)O)NC(=O)[C@@H](Cc2c[nH]c3ccccc23)NC1=O` [Example 45, cyclo(-DTrp-DAsp-Pro-DVal-Nva-)] (cyclo([Nva][dW][dD]P[dV])): the inhibition at 1.1 µM is 85%.

In the case of `CCCC[C@@H]1NC(=O)[C@@H](CC(=O)O)NC(=O)[C@@H](Cc2c[nH]c3ccccc23)NC(=O)[C@H](CC(C)C)NC(=O)[C@@H](C(C)C)NC1=O` [Example 46, cyclo(-DTrp-DAsp-Nle-DVal-Leu-)] (cyclo(L[dW][dD][Nle][dV])), the inhibition at 1.1 µM was found to be 75%.

Take `CC(C)C[C@@H]1NC(=O)[C@@H](C(C)C)NC(=O)[C@@H]2CCCCN2C(=O)[C@@H](CC(=O)O)NC(=O)[C@@H](Cc2c[nH]c3ccccc23)NC1=O` [Example 47, cyclo(-DTrp-DAsp-Pip-DVal-Leu-)] (cyclo(L[dW][dD][Pip][dV])): the inhibition at 1.1 µM amounted to 89%. Still for that read-out and setting: with `CC(C)C[C@@H]1NC(=O)[C@@H](C(C)C)NC(=O)[C@H](Cc2ccccc2)NC(=O)[C@@H](CC(=O)O)NC(=O)[C@@H](Cc2c[nH]c3ccccc23)NC1=O` [Example 48, cyclo(-DTrp-DAsp-Phe-DVal-Leu-)] (cyclo(F[dV]L[dW][dD])) the figure was 71%. Same read-out and setting: with `CC(C)C[C@@H]1NC(=O)[C@@H](C(C)C)NC(=O)[C@H](CCCCN)NC(=O)[C@@H](CS(=O)(=O)O)NC(=O)[C@@H](Cc2c[nH]c3ccccc23)NC1=O` [Example 50, cyclo(-DTrp-nCys(O3 H)-Lys-DVal-Leu-)] (cyclo(K[dV]L[dW][dCya])) the figure was 57%; with `CC(C)C[C@@H]1NC(=O)[C@@H](C(C)C)NC(=O)[C@@H]2CCCN2C(=O)[C@@H](CC(=O)O)NC(=O)[C@@H](Cc2cn(C=O)c3ccccc23)NC1=O` [Example 51, cyclo(-DTrp(CHO)-DAsp-Pro-DVal-Leu-)] (cyclo(L[dW](For)[dD]P[dV])), 84%. As to `CCCC[C@@H]1NC(=O)[C@@H](C(C)C)NC(=O)[C@H](CO)NC(=O)[C@@H](CC(=O)O)NC(=O)[C@@H](Cc2cn(C=O)c3ccccc23)NC1=O` [Example 54, cyclo(-DTrp(CHO)-DAsp-Ser-DVal-Nle-)] (cyclo([Nle][dW](For)[dD]S[dV])), the inhibition at 1.1 µM amounted to 65%. The same measure, in the same setting: with `CSCC[C@@H]1NC(=O)[C@@H](CC(=O)O)NC(=O)[C@@H](Cc2cn(C=O)c3ccccc23)NC(=O)[C@H](CC(C)C)NC(=O)[C@@H](C(C)C)NC1=O` [Example 55, cyclo(-DTrp(CHO)-DAsp-Met-DVal-Leu-)] (cyclo(L[dW](For)[dD]M[dV])) the figure was 81%.

With `CCC[C@@H]1NC(=O)[C@@H](C(C)C)NC(=O)[C@@H]2CCCN2C(=O)[C@@H](CC(=O)O)NC(=O)[C@@H](Cc2cn(C=O)c3ccccc23)NC1=O` [Example 56, cyclo(-DTrp(CHO)-DAsp-Pro-DVal-Nva-)] (cyclo([Nva][dW](For)[dD]P[dV])), the inhibition at 1.1 µM worked out at 84%. For the molecule `CC(C)C[C@@H]1NC(=O)[C@@H](C(C)C)NC(=O)[C@H](CCCCNC=O)NC(=O)[C@@H](CC(=O)O)NC(=O)[C@@H](Cc2c[nH]c3ccccc23)NC1=O` [Example 57, cyclo(-DTrp-DAsp-Lys(CHO)-DVal-Leu-)] (cyclo(K(For)[dV]L[dW][dD])), the inhibition at 1.1 µM came to 65%.

Staying with this test, now noted: read-out: 125I-endothelin-1 binding inhibition, Inhibition (%).
For `CC(C)C[C@@H]1NC(=O)[C@@H](C(C)C)NC(=O)[C@H](CS(=O)(=O)O)NC(=O)[C@@H](CS(=O)(=O)O)NC(=O)[C@@H](Cc2c[nH]c3ccccc23)NC1=O` [Example 42, cyclo(-DTrp-DCys(O3 Na)-Cys(O3 Na)-DVal-Leu-)] (cyclo([Cya][dV]L[dW][dCya])), the inhibition at 1.1 µM is 79%.
